Laboratory results from patent publication US10611757B2, “Crystalline form of chemical compound, and preparation method, composition, and application thereof” (WUHAN LL SCIENCE AND TECHNOLOGY DEVELOPMENT CO., LTD., priority 2016, dated 2020).
Entries after “also recorded” stand apart in the source; their conditions may differ.

Columns and labels:
[1] = tested on: spontaneously hypertensive rats; experiment: Antihypertensive efficacy test in spontaneously hypertensive rats (systolic blood pressure and heart rate by implanted sensor); assay type: in vivo, rat; conditions: SHR, 1 mg/kg; for Systolic blood pressure change / Heart rate change: average ± standard error; for Heart rate change: oral
Experimental: 12-week-old spontaneously hypertensive rats (hereinafter referred to as SHR, purchased from Beijing Weitong Lihua Experimental Animal Technology Co., Ltd.) were anesthetized with 2.5% sodium pentobarbital for intraperitoneal injection. After that, the blood pressure sensing catheter of hypertension implant was inserted into their abdominal aorta, while the implant was fixed to the abdominal wall, and then postoperative daily care was performed after suturing.
Rats with systolic blood pressure exceeding 160 mm Hg were divided into 3 groups (control group, compound (A) group and compound (B) group), wherein each group has 8 rats. The control group was administrated 0.5% sodium carboxymethyl cellulose (hereinafter referred to as CMC-Na); the compound (B) group and the compound (A) group were respectively administered the compound (B) and the compound (A), both of which were dissolved by 0.5% CMC-Na, by intragastric administration, at a dose of 1 mg/kg (calculated by the effective dose of valsartan) and a volume calculated by 4 mL/kg.
The systolic blood pressure and heart rate of SHR were compared before and after administration (the systolic blood pressure and heart rate of SHR before administration as reference value), which were detected three times at each time point with the average value recorded.

[2] = Competition test between crystalline forms at room temperature (ethyl acetate suspension, XRD); assay type: physicochemical; conditions: for stability under room temperature relative to the competing form: competition in ethyl acetate suspension
Experimental: Equivalent amounts of crystalline form I and crystalline form II samples were mixed well, added with 0.8 ml ethyl acetate to form a suspension, stirred overnight and detected by XRD.
Equivalent amounts of crystalline form II and form III samples were mixed well, added with 0.2 ml ethyl acetate to form a suspension, which was stirred overnight to obtain a crystalline form II determined by XRD detection.
Equivalent amounts of crystalline form I and form III samples were mixed uniformly, added with 0.2 ml ethyl acetate to form a suspension, which was stirred overnight, to obtain a crystalline form I determined by XRD detection.

[3] = Comparative stability of crystalline form III and IV on drying overnight at room temperature (XRD); assay type: physicochemical
Source text: The crystalline form III and the crystalline form IV samples were respectively dried overnight at room temperature.

[4] = Comparative stability test (total impurity content, 25° C., 60% relative humidity); assay type: physicochemical; conditions: for total impurity content: packed; for chemical stability relative to the amorphous form: total impurity content
Experimental: The stability of an amorphous form, the crystalline form I, a mixture of the crystalline form I and the crystal II, the crystal II, and the crystalline form III of the compound (A) was investigated. Specifically, the amorphous form, the crystalline form I, the mixture of the crystalline form I and the crystalline form II (weight ratio 1:2), the crystalline form II and the crystalline form III were taken 200 mg respectively to be investigated as follows:
Packing: Polyvinyl chloride (PVC) ziplock bag (the inner layer) was vacuumized, aluminum foil (the middle layer) was vacuumized, and aluminum foil desiccant (the outer layer) was vacuum and filled in with nitrogen;
Inspection conditions: 25° C., 60% relative humidity. The indicator was the total impurity content, which is determined by detection of samples three times at each time point with the average value recorded. The time points for sampling include 0, 1, 2, 3 and 6 months after packing.

[5] = Effects of tabletting processes on the crystalline form II (XRD); assay type: physicochemical; conditions: tableted under 20 kg and 25 kg pressure
Experimental: Tabletting method: 50 mg of the crystalline form II was tableted under 20 kg and 25 kg pressure by a single punching machine.
The XRD of the obtained sample powder was compared with the XRD of the crude sample, the results are shown in FIG. 8 (from top to bottom: the crude sample, the sample after 25 kg pressure tabletting and the sample after 20 kg pressure tabletting).

[6] = Influences of high temperature and high humidity on the crystalline form II (XRD); assay type: physicochemical; conditions: 10 days
Experimental: Two samples of 20 mg the crystalline form II were respectively placed at 60° C. (sealed and shielded from light) and 85% relative humidity (exposed in the air at room temperature and shielded from light), detected by XRD after 10 days and compared with XRD of the crude sample.

[7] = intragastric, 1 hour after administration
[8] = intragastric, 3 hours after administration
[9] = intragastric, 5 hours after administration
[10] = intragastric, 7 hours after administration
[11] = intragastric, 10 hours after administration
[12] = intragastric, 24 hours after administration
[13] = intragastric, before administration (reference value)
[14] = before administration (reference value)

Question: For `CCOc1nc2cccc(C(=O)OC(C)OC(=O)OCc3nc(C)c(C)nc3C)c2n1Cc1ccc(-c2ccccc2-c2noc(=O)[n-]2)cc1.[K+]` (stereo not shown) [Compound (A)], which “effect of lowering heart rate compared with the compound (B) group” value [1] is on record?
Answer: more potent with longer-lasting effect of lowering heart rate

Question: And the “antihypertensive effect compared with the compound (B) group” value ([1]; intragastric)?
Answer: more potent with longer-lasting antihypertensive effect

Question: What about the “Systolic blood pressure change” value [1, 7] of the same compound?
Answer: −7.0 ± 3.4 mmHg

Question: What about the “Systolic blood pressure change” value [1, 8] of the same compound?
Answer: −34.3 ± 1.9 mmHg

Question: And the “Systolic blood pressure change” value [1, 9]?
Answer: −46.5 ± 2.5 mmHg

Question: What about the “Systolic blood pressure change” value [1, 10] of the same compound?
Answer: −49.4 ± 4.1 mmHg

Question: And the “Systolic blood pressure change” value [1, 11]?
Answer: −45.3 ± 3.3 mmHg

Question: What about the “Systolic blood pressure change” value [1, 12] of the same compound?
Answer: −25.9 ± 3.4 mmHg

Question: And the “Systolic blood pressure change” value [1, 13]?
Answer: 0.0 ± 0.0 mmHg

Question: And the Heart rate change ([1]; 1 hour after administration)?
Answer: −3.6 ± 2.4 times/minute

Question: What about the Heart rate change ([1]; 3 hours after administration) of the same compound?
Answer: −5.0 ± 2.5 times/minute

Question: What about the Heart rate change ([1]; 5 hours after administration) of the same compound?
Answer: −10.1 ± 3.0 times/minute

Question: And the Heart rate change ([1]; 7 hours after administration)?
Answer: −17.5 ± 3.0 times/minute

Question: And the Heart rate change ([1]; 10 hours after administration)?
Answer: −25.4 ± 2.4 times/minute

Question: What about the Heart rate change ([1]; 24 hours after administration) of the same compound?
Answer: −28.6 ± 8 times/minute

Question: What about the Heart rate change [1, 14] of the same compound?
Answer: 0.0 ± 0.0 times/minute

Question: With `CCOc1nc2cccc(C(=O)OC(C)OC(=O)OCc3nc(C)c(C)nc3C)c2n1Cc1ccc(-c2ccccc2-c2noc(=O)[nH]2)cc1` (stereo not shown) [Compound (B), reference compound] as the compound, how does the “Systolic blood pressure change” value [1, 7] read?
Answer: −4.9 ± 4.8 mmHg

Question: And the “Systolic blood pressure change” value [1, 8]?
Answer: −22.0 ± 3.6 mmHg

Question: And the “Systolic blood pressure change” value [1, 9]?
Answer: −30.5 ± 3.5 mmHg

Question: And the “Systolic blood pressure change” value [1, 10]?
Answer: −38.8 ± 2.3 mmHg

Question: What about the “Systolic blood pressure change” value [1, 11] of the same compound?
Answer: −33.0 ± 1.7 mmHg

Question: And the “Systolic blood pressure change” value [1, 12]?
Answer: −10.2 ± 2.1 mmHg

Question: What about the “Systolic blood pressure change” value [1, 13] of the same compound?
Answer: 0.0 ± 0.0 mmHg

Question: And the Heart rate change ([1]; 1 hour after administration)?
Answer: −3.4 ± 2.6 times/minute

Question: And the Heart rate change ([1]; 3 hours after administration)?
Answer: −2.33 ± 2.6 times/minute

Question: And the Heart rate change ([1]; 5 hours after administration)?
Answer: −6.5 ± 2.8 times/minute

Question: What about the Heart rate change ([1]; 7 hours after administration) of the same compound?
Answer: −6.2 ± 3.0 times/minute

Question: And the Heart rate change ([1]; 10 hours after administration)?
Answer: −12.3 ± 2.8 times/minute

Question: What about the Heart rate change ([1]; 24 hours after administration) of the same compound?
Answer: −6.7 ± 2.6 times/minute

Question: What about the Heart rate change [1, 14] of the same compound?
Answer: 0.0 ± 0.0 times/minute

Question: Which results are given for `CCOc1nc2cccc(C(=O)OC(C)OC(=O)OCc3nc(C)c(C)nc3C)c2n1Cc1ccc(-c2ccccc2-c2noc(=O)[n-]2)cc1.[K+]` (stereo not shown) [crystalline form III]?
Answer: transformation of crystalline form in competition with form I ([2]; equivalent amounts of form I and form III, ethyl acetate suspension, stirred overnight, XRD): completely transformed into the crystalline form I; transformation of crystalline form in competition with form II ([2]; equivalent amounts of form II and form III, ethyl acetate suspension, stirred overnight, XRD): completely transformed into the crystalline form II; share converted to the crystalline form I ([3]; dried overnight at room temperature, XRD): no more than 30%; stability at room temperature relative to crystalline form IV [3]: superior to that of the crystalline form IV; total impurity content ([4]; 0 months): 1.56%; total impurity content ([4]; 1 month): 2.55%; total impurity content ([4]; 2 months): 2.98%; total impurity content ([4]; 3 months): 3.34%; total impurity content ([4]; 6 months): 3.76%; chemical stability relative to the amorphous form [4]: better than the amorphous form

Question: What does the source list for `CCOc1nc2cccc(C(=O)OC(C)OC(=O)OCc3nc(C)c(C)nc3C)c2n1Cc1ccc(-c2ccccc2-c2noc(=O)[n-]2)cc1.[K+]` (stereo not shown) [crystalline form II]?
Answer: stability under room temperature relative to the competing form [2]: better than that of form I; also recorded: better than that of form III; stability at room temperature relative to crystalline form IV [3]: superior to that of the crystalline form IV; crystalline form after tabletting [5]: remains unchanged; crystalline form after high temperature ([6]; 60° C., sealed and shielded from light): remains unchanged; crystalline form after high humidity ([6]; 85% relative humidity, room temperature, shielded from light): remains unchanged; total impurity content ([4]; 0 months): 1.29%; total impurity content ([4]; 1 month): 1.43%; total impurity content ([4]; 2 months): 1.59%; total impurity content ([4]; 3 months): 1.82%; total impurity content ([4]; 6 months): 1.87%; chemical stability relative to the amorphous form [4]: better than the amorphous form

Question: With `CCOc1nc2cccc(C(=O)OC(C)OC(=O)OCc3nc(C)c(C)nc3C)c2n1Cc1ccc(-c2ccccc2-c2noc(=O)[n-]2)cc1.[K+]` (stereo not shown) [crystalline form IV] as the compound, how does the “transformation of crystalline form on drying” value ([3]; dried at room temperature, XRD) read?
Answer: converted to crystalline form I; also recorded: completely transformed into the crystalline form I

Question: With `CCOc1nc2cccc(C(=O)OC(C)OC(=O)OCc3nc(C)c(C)nc3C)c2n1Cc1ccc(-c2ccccc2-c2noc(=O)[n-]2)cc1.[K+]` (stereo not shown) [crystalline form I] as the compound, how does the “stability under room temperature relative to the competing form” value [2] read?
Answer: better than that of the crystalline form III

Question: What about the “content of crystalline form I in the obtained product” value ([2]; equivalent amounts of form I and form II, ethyl acetate suspension, stirred overnight, XRD) of the same compound?
Answer: about 5%

Question: And the “stability at room temperature relative to crystalline form IV” value [3]?
Answer: superior to that of the crystalline form IV

Question: And the total impurity content ([4]; 0 months)?
Answer: 1.11%

Question: And the total impurity content ([4]; 1 month)?
Answer: 1.62%

Question: What about the total impurity content ([4]; 2 months) of the same compound?
Answer: 2.34%

Question: And the total impurity content ([4]; 3 months)?
Answer: 2.49%

Question: What about the total impurity content ([4]; 6 months) of the same compound?
Answer: 3.10%

Question: And the “chemical stability relative to the amorphous form” value [4]?
Answer: better than the amorphous form

Question: With `CCOc1nc2cccc(C(=O)OC(C)OC(=O)OCc3nc(C)c(C)nc3C)c2n1Cc1ccc(-c2ccccc2-c2noc(=O)[n-]2)cc1.[K+]` (stereo not shown) [mixture of crystalline form I and II] as the compound, how does the total impurity content ([4]; 0 months) read?
Answer: 0.90%

Question: And the total impurity content ([4]; 1 month)?
Answer: 1.58%

Question: What about the total impurity content ([4]; 2 months) of the same compound?
Answer: 2.20%

Question: And the total impurity content ([4]; 3 months)?
Answer: 2.40%

Question: And the total impurity content ([4]; 6 months)?
Answer: 3.29%

Question: And the “chemical stability relative to the amorphous form” value [4]?
Answer: better than the amorphous form
